Experimental data from paper PMC11200585, “Prospects for Prostate Cancer Chemotherapy: Cytotoxic Evaluation and Mechanistic Insights of Quinolinequinones with ADME/PK Profile” (Biomedicines, 2024).

Experiments:
Assay type in all cases: cell-based, human
[1] = test system: DU-145; assay: NCI-60 five-dose assay (prostate cancer); conditions: 48 h, SRB; for GI50 / CC50: Homo sapiens; for CC50: read-out: LC50 (the source's name)
[2] = test system: MOLT-4; assay: NCI-60 five-dose assay (leukemia); conditions: 48 h, SRB; for GI50 / LC50: Homo sapiens
[3] = test system: SF-539; assay: NCI-60 five-dose assay (CNS cancer); conditions: 48 h, SRB; for GI50 / LC50: Homo sapiens
[4] = test system: HOP-92; assay: NCI-60 five-dose assay (non-small cell lung cancer); conditions: 48 h, SRB; for GI50 / LC50 (50% lethal concentration): Homo sapiens
[5] = test system: HOP-92; assay: NCI-60 one-dose screen (non-small cell lung cancer); conditions: 10 µM single dose, 48 h
[6] = test system: NCI-H23; assay: as above; conditions: 10 µM single dose, 48 h
[7] = test system: NCI-H226; assay: as above; conditions: 10 µM single dose, 48 h
[8] = test system: EKVX; assay: as above; conditions: 10 µM single dose, 48 h
[9] = test system: HOP-62; assay: as above; conditions: 10 µM single dose; for GP (growth percentage): 48 h
[10] = test system: NCI-H322M; assay: as above; conditions: 10 µM single dose, 48 h
[11] = test system: NCI-H460; assay: as above; conditions: 10 µM single dose; for GP (growth percentage): 48 h; for inhibition at 10 µM: Homo sapiens
[12] = test system: NCI-H522; assay: as above; conditions: 10 µM single dose, 48 h
[13] = test system: HT29; assay: NCI-60 five-dose assay (colon cancer); conditions: SRB; for TGI: 48 h; for GI50 / LC50 (concentration killing 50% of cells): Homo sapiens, HT-29, 48 h
[14] = test system: U251; assay: NCI-60 five-dose assay (CNS cancer); conditions: SRB; for TGI: 48 h; for GI50 / LC50 (concentration killing 50% of cells): Homo sapiens, U-251, 48 h
[15] = test system: 786-0; assay: NCI-60 one-dose screen (renal cancer); conditions: 10 µM single dose; for GP (growth percentage): 48 h
Description: (§1) The obtained quinolinequinones were submitted to NCI, Bethesda, USA, and, as per standard protocol of NCI, all compounds were evaluated for their antiproliferative activity at single-dose assay (10 µM concentration in DMSO) on a panel of 60 cancer cell lines derived from leukemia, non-small-cell lung, colon, CNS, melanoma, ovarian, renal, prostate, and breast, as per protocol. Tested compounds were added to the microtiter culture plates followed by incubation for 48 h at 37 °C. Sulforhodamine B (SRB), a protein-binding dye, is used for endpoint determination. The percent of the growth of the treated cells was determined in comparison to the untreated control cells and the results of each tested compound were reported. Data from one-dose experiments pertain to the percentage growth at 10 μM [16, 17, 18].

[16] = test system: UO-31; assay: NCI-60 one-dose screen (renal cancer); conditions: 10 µM single dose, 48 h
Description: as §1

[17] = test system: A498; assay: NCI-60 one-dose screen (renal cancer); conditions: 10 µM single dose, 48 h
Description: as §1

[18] = test system: ACHN; assay: NCI-60 one-dose screen (renal cancer); conditions: 10 µM single dose, 48 h
Description: as §1

[19] = test system: TK-10; assay: NCI-60 one-dose screen (renal cancer); conditions: 10 µM single dose, 48 h
Description: as §1

[20] = test system: SN12C; assay: NCI-60 one-dose screen (renal cancer); conditions: 10 µM single dose, 48 h
Description: as §1

[21] = test system: NCI-H522; assay: NCI-60 five-dose assay (non-small cell lung cancer); conditions: 48 h, SRB; for GI50 / LC50: Homo sapiens
[22] = test system: BT-549; assay: NCI-60 five-dose assay (breast cancer); conditions: 48 h, SRB; for GI50 / LC50 (concentration giving 50% net cell kill): Homo sapiens
[23] = test system: HCT-116; assay: NCI-60 five-dose assay (colon cancer); conditions: 48 h, SRB; for GI50 / LC50: Homo sapiens
[24] = test system: UACC-62; assay: NCI-60 five-dose assay (melanoma); conditions: 48 h, SRB; for GI50 / LC50 (concentration killing 50% of cells): Homo sapiens
[25] = test system: 786-0; assay: NCI-60 five-dose assay (renal cancer); conditions: 48 h, SRB; for GI50 / LC50: Homo sapiens
[26] = test system: RPMI-8226; assay: NCI-60 five-dose assay (leukemia); conditions: 48 h, SRB; for GI50 / CC50: Homo sapiens; for CC50: read-out: LC50 (the source's name)
[27] = test system: SF-268; assay: NCI-60 five-dose assay (CNS cancer); conditions: 48 h, SRB; for GI50 / LC50 (concentration killing 50% of cells): Homo sapiens
[28] = test system: EKVX; assay: NCI-60 five-dose assay (non-small cell lung cancer); conditions: 48 h, SRB; for GI50 / CC50: Homo sapiens; for CC50: read-out: LC50 (the source's name)
[29] = test system: NCI-H226; assay: as above; conditions: 48 h, SRB; for GI50 / LC50: Homo sapiens
[30] = test system: HT29; assay: NCI-60 one-dose screen (colon cancer); conditions: for GP (growth percentage): 10 µM single dose, 48 h; for inhibition at 10 µM: Homo sapiens, HT-29, 10 µM single dose
Description: as §1

[31] = test system: HCT-116; assay: NCI-60 one-dose screen (colon cancer); conditions: 10 µM single dose, 48 h
Description: as §1

[32] = test system: HCT-15; assay: NCI-60 one-dose screen (colon cancer); conditions: 10 µM single dose, 48 h
Description: as §1

[33] = test system: SW-620; assay: NCI-60 one-dose screen (colon cancer); conditions: 10 µM single dose, 48 h
Description: as §1

[34] = test system: KM12; assay: NCI-60 one-dose screen (colon cancer); conditions: 10 µM single dose, 48 h
Description: as §1

[35] = test system: HCC-2998; assay: NCI-60 one-dose screen (colon cancer); conditions: 10 µM single dose; for GP (growth percentage): 48 h
Description: as §1

[36] = test system: COLO 205; assay: NCI-60 one-dose screen (colon cancer); conditions: 10 µM single dose, 48 h
Description: as §1

[37] = test system: CAKI-1; assay: NCI-60 five-dose assay (renal cancer); conditions: 48 h, SRB; for GI50 / LC50 (lethal concentration, 50% net cell kill): Homo sapiens
[38] = test system: OVCAR-3; assay: NCI-60 five-dose assay (ovarian cancer); conditions: 48 h, SRB

COc1cc(NC2=C(Cl)C(=O)c3nc(C)ccc3C2=O)cc(OC)c1 [AQQ5]
TGI [1]: 3.55 µM | GI50 [1]: 1.84 µM | CC50 [1]: 6.83 µM | TGI [2]: 7.00 µM | GI50 [2]: 1.5 µM | LC50 [2]: > 100 µM | TGI [3]: 3.22 µM | GI50 [3]: 1.79 µM | LC50 [3]: 5.78 µM | TGI [4]: 3.17 µM | GI50 [4]: 1.73 µM | LC50 (50% lethal concentration) [4]: 5.83 µM | GP (growth percentage) [5]: −12.23% | GP (growth percentage) [6]: −55.61% | GP (growth percentage) [7]: 68.59% | GP (growth percentage) [8]: 74.66% | GP (growth percentage) [9]: 0.85% | inhibition at 10 µM ([9]; Homo sapiens): 99.2% | GP (growth percentage) [10]: 89.75% | GP (growth percentage) [11]: 2.02% | inhibition at 10 µM [11]: 98% | GP (growth percentage) [12]: −80.61% | TGI [13]: 3.48 µM | GI50 [13]: 1.87 µM | LC50 (concentration killing 50% of cells) [13]: 6.48 µM | TGI [14]: 4.44 µM | GI50 [14]: 1.92 µM | LC50 (concentration killing 50% of cells) [14]: 10.8 µM | GP (growth percentage) [15]: −59.47% | GP (growth percentage) [16]: −94.65% | GP (growth percentage) [17]: 71.10% | GP (growth percentage) [18]: −99.62% | GP (growth percentage) [19]: −50.07% | GP (growth percentage) [20]: −63.27% | TGI [21]: 3.06 µM | GI50 [21]: 1.56 µM | LC50 [21]: 6.02 µM | TGI [22]: 3.40 µM | GI50 [22]: 1.97 µM | LC50 (concentration giving 50% net cell kill) [22]: 5.87 µM | TGI [23]: 2.88 µM | GI50 [23]: 1.53 µM | LC50 [23]: 5.45 µM | TGI [24]: 3.42 µM | GI50 [24]: 1.77 µM | LC50 (concentration killing 50% of cells) [24]: 6.6 µM | TGI [25]: 2.88 µM | GI50 [25]: 1.52 µM | LC50 [25]: 5.44 µM | TGI [26]: 5.19 µM | GI50 [26]: 1.79 µM | CC50 [26]: > 100 µM | TGI [27]: 14.4 µM | GI50 [27]: 3.25 µM | LC50 (concentration killing 50% of cells) [27]: 72.7 µM | TGI [28]: 3.12 µM | GI50 [28]: 1.6 µM | CC50 [28]: 6.08 µM | TGI [29]: 8.35 µM | GI50 [29]: 2.82 µM | LC50 [29]: 46.1 µM | GP (growth percentage) [30]: 24.91% | inhibition at 10 µM [30]: 75.1% | GP (growth percentage) [31]: −97.84% | GP (growth percentage) [32]: −66.21% | GP (growth percentage) [33]: −90.16% | GP (growth percentage) [34]: 39.30% | GP (growth percentage) [35]: 14.44% | inhibition at 10 µM ([35]; Homo sapiens): 85.6% | GP (growth percentage) [36]: −80.52% | TGI [37]: 3.15 µM | GI50 [37]: 1.76 µM | LC50 (lethal concentration, 50% net cell kill) [37]: 5.65 µM

CCOc1ccc(NC2=C(Cl)C(=O)c3nc(C)ccc3C2=O)cc1 [AQQ3]
TGI [1]: 3.13 µM | GI50 [1]: 1.72 µM | CC50 [1]: 5.68 µM | TGI [2]: >100 µM | GI50 [2]: 2.49 µM | LC50 [2]: > 100 µM | TGI [3]: 3.13 µM | GI50 [3]: 1.68 µM | LC50 [3]: 5.84 µM | TGI [4]: 3.51 µM | GI50 [4]: 2.01 µM | LC50 (50% lethal concentration) [4]: 6.12 µM | GP (growth percentage) [5]: −86.99% | GP (growth percentage) [6]: −61.00% | GP (growth percentage) [7]: −52.55% | GP (growth percentage) [8]: −97.48% | GP (growth percentage) [9]: 72.15% | GP (growth percentage) [10]: 32.37% | GP (growth percentage) [11]: 13.41% | inhibition at 10 µM [11]: 86.6% | GP (growth percentage) [12]: −61.57% | TGI [13]: 7.08 µM | GI50 [13]: 2.87 µM | LC50 (concentration killing 50% of cells) [13]: 62.5 µM | TGI [14]: 3.54 µM | GI50 [14]: 1.8 µM | LC50 (concentration killing 50% of cells) [14]: 6.94 µM | GP (growth percentage) [15]: 8.39% | inhibition at 10 µM ([15]; Homo sapiens): 91.6% | GP (growth percentage) [16]: −65.05% | GP (growth percentage) [17]: 100.96% | GP (growth percentage) [18]: −98.42% | GP (growth percentage) [19]: 121.08% | GP (growth percentage) [20]: −57.33% | TGI [21]: 3.22 µM | GI50 [21]: 1.75 µM | LC50 [21]: 5.94 µM | TGI [22]: 2.80 µM | GI50 [22]: 1.43 µM | LC50 (concentration giving 50% net cell kill) [22]: 5.49 µM | TGI [23]: 2.79 µM | GI50 [23]: 1.32 µM | LC50 [23]: 5.92 µM | TGI [24]: 3.29 µM | GI50 [24]: 1.81 µM | LC50 (concentration killing 50% of cells) [24]: 5.97 µM | TGI [38]: 2.19 µM | GI50 ([38]; Homo sapiens): 0.962 µM | CC50 ([38]; Homo sapiens, read-out: LC50 (the source's name)): 4.87 µM | TGI [25]: 3.19 µM | GI50 [25]: 1.72 µM | LC50 [25]: 5.89 µM | TGI [26]: 5.33 µM | GI50 [26]: 1.67 µM | CC50 [26]: > 100 µM | TGI [27]: 3.09 µM | GI50 [27]: 1.55 µM | LC50 (concentration killing 50% of cells) [27]: 6.14 µM | TGI [28]: 3.12 µM | GI50 [28]: 1.61 µM | CC50 [28]: 6.05 µM | TGI [29]: 4.52 µM | GI50 [29]: 1.84 µM | LC50 [29]: > 100 µM | GP (growth percentage) [30]: 15.90% | inhibition at 10 µM [30]: 84.1% | GP (growth percentage) [31]: −83.64% | GP (growth percentage) [32]: −83.19% | GP (growth percentage) [33]: −55.33% | GP (growth percentage) [34]: 57.40% | GP (growth percentage) [35]: −55.70% | GP (growth percentage) [36]: 98.22% | TGI [37]: 2.97 µM | GI50 [37]: 1.6 µM | LC50 (lethal concentration, 50% net cell kill) [37]: 5.51 µM
